In the NIST ThermoML archive (doi:10.1021/je700339f):

Test: xn = mol fraction of the nth substance listed
Conditions: 298 K, Liquid

ClCCCCCCCl [1,6-dichlorohexane] + CN(C)C=O
mass density [kg/m3]
Conditions | x2 = 0.0986 | x2 = 0.2013 | x2 = 0.3197 | x2 = 0.4014 | x2 = 0.5033 | x2 = 0.6037 | x2 = 0.7034 | x2 = 0.8019 | x2 = 0.9008
10000 kPa | – | – | – | – | 1025.7 | 1013.9 | 1000.8 | 986.4 | 969.8
10400 kPa | – | – | – | – | – | – | – | 986.7 | 969.9
10500 kPa | 1063.5 | 1055.8 | 1045.3 | 1037.2 | 1026 | 1014.2 | 1001.1 | – | –
10900 kPa | 1063.8 | – | – | – | – | – | – | 987 | –
11000 kPa | – | 1056.1 | 1045.5 | 1037.5 | 1026.4 | 1014.5 | 1001.4 | – | 970.3
11400 kPa | – | – | 1045.8 | – | – | 1014.8 | – | – | –
11500 kPa | 1064.2 | 1056.4 | – | 1037.8 | 1026.7 | – | 1001.8 | 987.4 | 970.5
11900 kPa | – | – | – | – | – | 1015.1 | – | – | –
12000 kPa | 1064.5 | 1056.8 | 1046.2 | 1038.2 | 1027 | – | 1002 | 987.6 | 970.8
12400 kPa | – | – | – | – | – | 1015.4 | – | – | 971.1
12500 kPa | 1064.9 | 1057.1 | 1046.5 | 1038.4 | 1027.3 | – | 1002.4 | 988 | –
12900 kPa | 1065.2 | – | – | 1038.8 | – | – | – | – | –
13000 kPa | – | 1057.4 | 1046.8 | – | 1027.6 | 1016 | 1002.7 | 988.2 | 971.3
13500 kPa | 1065.5 | 1057.8 | 1047.2 | 1039.2 | 1028 | 1016.3 | 1003 | 988.6 | 971.6
13900 kPa | – | – | – | 1039.5 | – | – | – | – | –
14000 kPa | 1065.8 | 1058.1 | 1047.5 | – | 1028.3 | 1016.6 | 1003.3 | 989 | 971.9
14400 kPa | – | – | – | – | – | 1016.8 | – | – | –
14500 kPa | – | 1058.4 | 1047.8 | 1039.8 | 1028.6 | – | 1003.5 | 989.2 | 972.2
14600 kPa | 1066.2 | – | – | – | – | – | – | – | –
15000 kPa | 1066.5 | 1058.7 | 1048.2 | 1040 | 1028.9 | 1017.3 | 1003.9 | 989.5 | 972.6
15400 kPa | – | – | – | – | 1029.2 | 1017.6 | – | – | –
15500 kPa | 1066.9 | 1059 | 1048.6 | 1040.4 | – | – | 1004.2 | 989.8 | 972.8
15900 kPa | – | 1059.3 | – | 1040.7 | – | – | – | 990.1 | –
16000 kPa | 1067.1 | – | 1048.8 | – | 1029.6 | 1018 | 1004.5 | – | 973.1
16400 kPa | – | 1059.6 | – | 1041 | – | – | – | – | –
16500 kPa | 1067.4 | – | 1049 | – | 1030 | 1018.2 | 1004.8 | 990.4 | 973.4
17000 kPa | 1067.8 | 1060 | 1049.4 | 1041.4 | 1030.3 | 1018.5 | 1005.1 | 990.7 | 973.7
17500 kPa | 1068.2 | 1060.3 | 1049.7 | 1041.7 | 1030.5 | 1018.8 | 1005.4 | 990.9 | 974
17900 kPa | – | – | 1050 | – | – | – | – | 991.2 | –
18000 kPa | 1068.5 | 1060.6 | – | 1042 | 1030.9 | 1019.1 | 1005.6 | – | 974.3
18500 kPa | 1068.8 | 1060.9 | 1050.3 | 1042.3 | 1031.2 | 1019.4 | 1005.9 | 991.5 | 974.7
19000 kPa | 1069.2 | 1061.2 | 1050.7 | 1042.6 | 1031.5 | 1019.8 | 1006.3 | 991.9 | 975.1
19400 kPa | – | 1061.5 | – | – | – | – | – | – | –
19500 kPa | 1069.5 | – | 1051 | 1042.9 | 1031.8 | 1020.1 | 1006.6 | 992.2 | 975.4
20000 kPa | 1069.8 | 1062 | 1051.5 | 1043.2 | 1032.2 | 1020.5 | 1007 | 992.5 | 975.8
